# Measured values: ChEMBL document CHEMBL3233001, “Pharmacophoric modifications lead to superpotent αvβ3 integrin ligands with suppressed α5β1 activity” (J Med Chem, 2014)
# Molecular target: Integrin alpha-V/beta-5 (Homo sapiens, UniProt P06756+P18084)
# Assay: Inhibition of vitronectin binding to alphavbeta5 integrin receptor (unknown origin) after 1 hr by competitive solid-phase binding ELISA
# Format: protein-complex assay
row,IC50 [nM],SMILES
1,227,COc1ccnc(NCCCOc2ccc(C[C@@H](CC(=O)O)NC(=O)c3ccc(OC(C)C)cc3)cc2)c1

# Molecular target: Integrin alpha-V/beta-6 (Homo sapiens, UniProt P06756+P18564)
# Assay: Inhibition of LAP binding to human alphavbeta6 integrin receptor after 1 hr by competitive solid-phase binding ELISA
# Format: protein-complex assay
row,IC50 [nM],SMILES
1,20,COc1ccnc(NCCCOc2ccc(C[C@@H](CC(=O)O)NC(=O)c3ccc(OC(C)C)cc3)cc2)c1

# Molecular target: Integrin alpha-IIb/beta-3 (Homo sapiens, UniProt P05106+P08514)
# Assay: Inhibition of fibrinogen binding to alpha2bbeta3 integrin receptor (unknown origin) after 1 hr by competitive solid-phase binding ELISA
# Format: protein-complex assay
row,IC50 [µM],SMILES
1,> 10,COc1ccnc(NCCCOc2ccc(C[C@@H](CC(=O)O)NS(=O)(=O)c3ccc(C)cc3)cc2)c1
2,> 10,COc1ccnc(NCCCOc2ccc(C[C@@H](CC(=O)O)NC(=O)c3ccc(OC(C)C)cc3)cc2)c1

# Molecular target: Integrin alpha-V/beta-3 (Homo sapiens, UniProt P05106+P06756)
# Assay: Inhibition of vitronectin binding to human alphavbeta3 integrin receptor after 1 hr by competitive solid-phase binding ELISA
# Format: protein-complex assay
row,SMILES,IC50 [nM]
1,Cc1cccc(NCCCOc2ccc(C[C@@H](CC(=O)O)NC(=O)c3ccccc3)cc2)n1,110
2,COc1ccnc(NCCCOc2ccc(C[C@@H](CC(=O)O)NC(=O)c3ccc(F)cc3)cc2)c1,1.6
3,COc1ccnc(NCCCOc2ccc(C[C@@H](CC(=O)NO)NC(=O)c3ccc(OC(C)C)cc3)cc2)c1,638
4,COc1ccnc(NCCCOc2ccc(C[C@@H](CC(=O)NO)NS(=O)(=O)c3ccc(C)cc3)cc2)c1,75.1

# The next molecules have a lower IC50 than those just listed; values first:
row,IC50 [nM],SMILES
1,0.65,COc1ccnc(NCCCOc2ccc(C[C@@H](CC(=O)O)NS(=O)(=O)c3ccc(C)cc3)cc2)c1
2,0.86,COc1ccnc(NCCCOc2ccc(C[C@@H](CC(=O)O)NC(=O)c3ccc(OC(C)C)cc3)cc2)c1

# Molecular target: Integrin alpha-5/beta-1 (Homo sapiens, UniProt P05556+P08648)
# Assay: Inhibition of fibronectin binding to human alpha5beta1 integrin receptor after 1 hr by competitive solid-phase binding ELISA
# Format: protein-complex assay
row,SMILES,IC50 [nM]
1,Cc1cccc(NCCCOc2ccc(C[C@@H](CC(=O)O)NC(=O)c3ccccc3)cc2)n1,> 10000
2,COc1ccnc(NCCCOc2ccc(C[C@@H](CC(=O)O)NC(=O)c3ccc(F)cc3)cc2)c1,64.2
3,COc1ccnc(NCCCOc2ccc(C[C@@H](CC(=O)NO)NC(=O)c3ccc(OC(C)C)cc3)cc2)c1,> 10000
4,COc1ccnc(NCCCOc2ccc(C[C@@H](CC(=O)NO)NS(=O)(=O)c3ccc(C)cc3)cc2)c1,> 10000

# The remaining lines, values ahead:
row,IC50 [nM],SMILES
1,108,COc1ccnc(NCCCOc2ccc(C[C@@H](CC(=O)O)NS(=O)(=O)c3ccc(C)cc3)cc2)c1
2,126,COc1ccnc(NCCCOc2ccc(C[C@@H](CC(=O)O)NC(=O)c3ccc(OC(C)C)cc3)cc2)c1
